Peptide text beside a SMILES is read from it.
How the values were obtained:
recombinant human ACE2 = molecular target: T1, recombinant human ACE2 (Homo sapiens, UniProt Q9BYF1); test: SPR binding to immobilized ACE2; settings: SPR Biacore T200, CM5 chip, amine coupling, 25°C, 30 µl/min, 1×PBS, 0.05% Tween 20, 5% dimethyl sulfoxide, pH 7.4; steady state affinity model; read-out: equilibrium dissociation constant (K D)
T1 construct: purchased Novoprotein, Beijing, China
Experimental: (§1) Each target was immobilized onto flow cells in a CM5 sensor chip (GE Healthcare) via the amine-coupling method. Briefly, ACE2 and NRP1 were diluted in 10 mM pH 4.5 acetate to 20 μg/ml. Then, the protein solutions were injected individually on the carboxyl-modified sensor surface to form amine bonds. Both ACE2 and NRP1 immobilized levels were approximately 10,000 RU. Binding analyses were carried out at 25°C and a flow rate of 30 µl/min. Tuftsin diluted in running buffer (1×PBS, 0.05% Tween 20 and 5% dimethyl sulfoxide, pH 7.4) was run over each target at gradient concentrations. An empty flow cell without any immobilized protein was used as a deducted reference. The binding curves were analysed using the steady state affinity model supplied with Biacore Evaluation Software (GE Healthcare).
(§2) The interactions of tuftsin with ACE2 and NRP1 were further evaluated by real-time biomolecular interaction analysis with SPR. The steady state affinity of the binding reaction were determined by injecting different concentrations of tuftsin over recombinant human ACE2 immobilized on one half of the chip surface, and over recombinant human NRP1 immobilized on another half of the chip surface. […] The K D fitting curve of tuftsin with NRP1 is gradually stable when the concentrations of tuftsin increased gradually, conforming to the characteristic of specific binding (Figure 3B).

[1] = in vitro and in vivo; ref Amoscato et al., 1983; Fridkin and Najjar, 1989; Siemion and Kluczyk, 1999; cited from earlier work
From the text: Along with ACE2, neuropilin 1 (NRP1) is another important host factor for SARS-CoV-2 infection ([Daly et al., 2020]). It has been reported that NRP1 facilitates the entry of SARS-CoV-2 into cells in the presence of ACE2 ([Cantuti-Castelvetri et al., 2020]). […] Tuftsin, a natural phagocytosis-stimulating peptide, was found by [Najjar and Nishioka (1970)]. Tuftsin is released from the Fc fragment of IgG by enzyme cleavage of an endocarboxy-peptidase in the spleen and a leukokin ...

recombinant human NRP1 = recombinant human NRP1 (Homo sapiens, UniProt O14786); test: SPR binding to immobilized NRP1; settings: SPR Biacore T200, CM5 chip, amine coupling, 25°C, 30 µl/min, 1×PBS, 0.05% Tween 20, 5% dimethyl sulfoxide, pH 7.4; steady state affinity model; read-out: K D value
Chain of recombinant human NRP1 (O14786 22-923): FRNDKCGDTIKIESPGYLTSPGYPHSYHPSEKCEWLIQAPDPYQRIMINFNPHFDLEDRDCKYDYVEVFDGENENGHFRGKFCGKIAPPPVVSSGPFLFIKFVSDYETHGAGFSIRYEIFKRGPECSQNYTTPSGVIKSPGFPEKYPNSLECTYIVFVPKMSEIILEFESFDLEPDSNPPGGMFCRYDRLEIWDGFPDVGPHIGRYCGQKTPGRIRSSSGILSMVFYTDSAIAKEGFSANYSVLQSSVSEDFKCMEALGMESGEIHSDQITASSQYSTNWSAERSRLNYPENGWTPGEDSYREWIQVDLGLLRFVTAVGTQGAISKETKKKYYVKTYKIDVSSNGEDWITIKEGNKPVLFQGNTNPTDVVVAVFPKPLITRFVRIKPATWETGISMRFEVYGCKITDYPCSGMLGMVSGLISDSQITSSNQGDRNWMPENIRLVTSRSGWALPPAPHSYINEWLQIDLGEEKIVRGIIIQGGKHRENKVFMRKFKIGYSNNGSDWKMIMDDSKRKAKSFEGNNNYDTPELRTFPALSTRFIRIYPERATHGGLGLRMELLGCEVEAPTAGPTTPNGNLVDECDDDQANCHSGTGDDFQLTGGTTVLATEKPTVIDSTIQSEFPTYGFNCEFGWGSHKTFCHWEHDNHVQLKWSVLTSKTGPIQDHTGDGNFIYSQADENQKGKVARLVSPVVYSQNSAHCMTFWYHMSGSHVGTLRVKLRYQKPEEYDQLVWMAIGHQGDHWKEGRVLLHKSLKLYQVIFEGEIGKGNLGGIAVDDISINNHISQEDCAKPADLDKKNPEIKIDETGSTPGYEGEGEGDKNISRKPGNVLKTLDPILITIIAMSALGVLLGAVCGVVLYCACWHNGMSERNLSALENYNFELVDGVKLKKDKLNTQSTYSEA
Experimental: as §1, §2

T1 sequence (Q9BYF1 18-805): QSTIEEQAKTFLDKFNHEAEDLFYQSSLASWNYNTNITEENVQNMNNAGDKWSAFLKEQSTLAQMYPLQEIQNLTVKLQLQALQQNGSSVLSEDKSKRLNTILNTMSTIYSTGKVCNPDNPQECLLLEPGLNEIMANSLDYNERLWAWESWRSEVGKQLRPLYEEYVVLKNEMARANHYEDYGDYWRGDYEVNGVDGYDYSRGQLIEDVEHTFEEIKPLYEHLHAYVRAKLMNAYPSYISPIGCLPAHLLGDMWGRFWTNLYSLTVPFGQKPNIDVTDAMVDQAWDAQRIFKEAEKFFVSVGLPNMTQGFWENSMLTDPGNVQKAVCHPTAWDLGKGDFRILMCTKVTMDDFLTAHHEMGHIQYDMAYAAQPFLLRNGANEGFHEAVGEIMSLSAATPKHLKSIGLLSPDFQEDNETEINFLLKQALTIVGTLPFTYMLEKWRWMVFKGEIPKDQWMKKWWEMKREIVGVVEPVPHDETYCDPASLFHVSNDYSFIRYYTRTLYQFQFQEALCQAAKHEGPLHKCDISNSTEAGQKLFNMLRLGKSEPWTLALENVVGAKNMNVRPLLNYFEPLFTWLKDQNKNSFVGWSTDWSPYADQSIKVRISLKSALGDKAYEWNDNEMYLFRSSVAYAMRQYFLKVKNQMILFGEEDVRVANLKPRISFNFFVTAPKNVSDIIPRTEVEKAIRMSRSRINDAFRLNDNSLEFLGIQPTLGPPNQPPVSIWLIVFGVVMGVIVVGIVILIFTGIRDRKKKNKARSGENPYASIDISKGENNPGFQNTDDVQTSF

C[C@@H](O)[C@H](N)C(=O)N[C@@H](CCCCN)C(=O)N1CCC[C@H]1C(=O)N[C@@H](CCCNC(=N)N)C(=O)O [tuftsin, L-Threonyl-L-Lysyl-L-Prolyl-L-Arginine] (H-TKPR-OH)
Kd (recombinant human ACE2): 460 µM | toxicity [1]: low toxicity | Kd (recombinant human NRP1): 10.7 µM

From paper PMC8984176, “Tuftsin: A Natural Molecule Against SARS-CoV-2 Infection” (Frontiers in Molecular Biosciences, 2022)
